In ChEMBL document CHEMBL3217656, “Identification of a potent salicylic acid-based inhibitor of tyrosine phosphatase PTP1B” (Medchemcomm, 2013):
Active and inactive are the calls of the source. The rule behind the calls is not given here.

Assays:
[1] = target: T1, Papain (Carica papaya, UniProt P00784); test: Inhibition of papaya papain assessed as Z-Phe-Arg-pNA hydrolysis by fluorometric kinetic-based assay
T1 sequence (P00784 whole entry): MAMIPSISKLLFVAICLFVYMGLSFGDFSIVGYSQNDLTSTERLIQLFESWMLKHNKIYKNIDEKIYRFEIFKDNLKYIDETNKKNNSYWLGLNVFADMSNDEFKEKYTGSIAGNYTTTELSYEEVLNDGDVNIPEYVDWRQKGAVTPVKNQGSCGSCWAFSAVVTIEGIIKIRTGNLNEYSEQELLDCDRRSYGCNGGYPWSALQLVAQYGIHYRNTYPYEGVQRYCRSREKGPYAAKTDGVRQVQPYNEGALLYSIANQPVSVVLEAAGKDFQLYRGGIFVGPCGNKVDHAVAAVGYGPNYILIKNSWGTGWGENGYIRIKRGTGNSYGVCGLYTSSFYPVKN

[2] = target: T2, Dual specificity protein phosphatase 22 (Homo sapiens, UniProt Q9NRW4); test: Inhibition of human GST-tagged full length MKPX assessed as DiFMUP hydrolysis by fluorometric kinetic-based assay
T2 sequence (Q9NRW4 whole entry): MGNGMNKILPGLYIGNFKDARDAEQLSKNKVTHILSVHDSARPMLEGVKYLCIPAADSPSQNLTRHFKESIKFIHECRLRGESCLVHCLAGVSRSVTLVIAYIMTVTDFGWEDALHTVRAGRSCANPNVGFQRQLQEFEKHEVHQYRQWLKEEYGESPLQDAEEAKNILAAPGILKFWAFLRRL

[3] = Inhibition of human GST-tagged PRL2 A/S active mutant assessed as DiFMUP hydrolysis by fluorometric kinetic-based assay
[4] = target: T3, Tyrosine-protein phosphatase non-receptor type 2 (Homo sapiens, UniProt P17706); test: Inhibition of human GST-tagged TC-PTP catalytic domain assessed as DiFMUP hydrolysis by fluorometric kinetic-based assay
T3 sequence (P17706 whole entry): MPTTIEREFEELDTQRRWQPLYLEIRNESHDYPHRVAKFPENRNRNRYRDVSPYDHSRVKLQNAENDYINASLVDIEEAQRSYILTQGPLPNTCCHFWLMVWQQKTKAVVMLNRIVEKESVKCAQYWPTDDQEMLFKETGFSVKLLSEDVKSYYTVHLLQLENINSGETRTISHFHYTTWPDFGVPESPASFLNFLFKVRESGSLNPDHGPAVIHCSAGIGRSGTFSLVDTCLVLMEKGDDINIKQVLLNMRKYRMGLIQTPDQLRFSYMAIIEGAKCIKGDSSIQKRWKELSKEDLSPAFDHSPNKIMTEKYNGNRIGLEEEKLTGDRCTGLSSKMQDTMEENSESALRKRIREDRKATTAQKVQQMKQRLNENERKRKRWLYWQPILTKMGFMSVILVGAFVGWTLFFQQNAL

[5] = target: T4, Receptor-type tyrosine-protein phosphatase S (Homo sapiens, UniProt Q13332); test: Inhibition of human GST-tagged PTP-sigma D1D2 domain assessed as DiFMUP hydrolysis by fluorometric kinetic-based assay
[6] = target: T5, Tyrosine-protein phosphatase non-receptor type 1 (Homo sapiens, UniProt P18031); test: Inhibition of human GST-tagged PTP1B catalytic domain assessed as DiFMUP hydrolysis by fluorometric kinetic-based assay
T5 sequence (P18031 whole entry): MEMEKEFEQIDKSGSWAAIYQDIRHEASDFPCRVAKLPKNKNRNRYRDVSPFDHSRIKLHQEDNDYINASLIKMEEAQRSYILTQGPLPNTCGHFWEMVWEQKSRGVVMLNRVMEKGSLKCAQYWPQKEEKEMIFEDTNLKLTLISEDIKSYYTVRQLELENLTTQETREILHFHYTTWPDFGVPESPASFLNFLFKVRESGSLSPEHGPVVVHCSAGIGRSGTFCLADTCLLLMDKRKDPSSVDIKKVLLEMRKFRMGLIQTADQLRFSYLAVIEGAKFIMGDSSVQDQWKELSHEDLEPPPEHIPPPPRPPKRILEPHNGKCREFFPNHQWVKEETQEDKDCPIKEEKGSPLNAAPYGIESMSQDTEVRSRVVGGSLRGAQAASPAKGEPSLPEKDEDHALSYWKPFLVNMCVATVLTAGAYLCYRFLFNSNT

[7] = target: T6, Papain (Carica papaya) (UniProt P00784); test: Inhibition of papaya papain assessed as Z-Phe-Arg-pNA hydrolysis at 10 uM by fluorometric kinetic-based assay
T6 sequence (whole entry): T1 sequence (P00784 whole entry)

[8] = target: T7, Dual specificity protein phosphatase 22 (Homo sapiens) (UniProt Q9NRW4); test: Inhibition of human GST-tagged full length MKPX assessed as DiFMUP hydrolysis at 10 uM by fluorometric kinetic-based assay
T7 sequence (whole entry): T2 sequence (Q9NRW4 whole entry)

[9] = species: Homo sapiens; test: Inhibition of human GST-tagged PRL2 A/S active mutant assessed as DiFMUP hydrolysis at 10 uM by fluorometric kinetic-based assay
[10] = target: Receptor-type tyrosine-protein phosphatase F (Homo sapiens) (UniProt P10586); test: Inhibition of human GST-tagged PTP-LAR D1D2 domain assessed as DiFMUP hydrolysis at 10 uM by fluorometric kinetic-based assay
[11] = target: T4, Receptor-type tyrosine-protein phosphatase S; test: Inhibition of human GST-tagged PTP-sigma D1D2 domain assessed as DiFMUP hydrolysis at 10 uM by fluorometric kinetic-based assay
[12] = target: T8, Tyrosine-protein phosphatase non-receptor type 1 (Homo sapiens) (UniProt P18031); test: Inhibition of human GST-tagged PTP1B catalytic domain assessed as DiFMUP hydrolysis at 10 uM by fluorometric kinetic-based assay
T8 sequence (whole entry): T5 sequence (P18031 whole entry)

[13] = target: T9, Tyrosine-protein phosphatase non-receptor type 2 (Homo sapiens) (UniProt P17706); test: Inhibition of human GST-tagged TC-PTP catalytic domain assessed as DiFMUP hydrolysis at 10 uM by fluorometric kinetic-based assay
T9 sequence (whole entry): T3 sequence (P17706 whole entry)

[14] = target: T5, Tyrosine-protein phosphatase non-receptor type 1; test: Competitive inhibition of human GST-tagged PTP1B catalytic domain assessed as rate of DiFMUP hydrolysis by lineweaver-burk plot analysis
[15] = test system: CHO; test: Cytotoxicity against Chinese hamster CHO cells overexpressing IR assessed as slight reduction in cell viability at >50 uM by xCELLigence system; assay type: cell-based, Cricetulus griseus
[16] = test system: CHO; test: Cytotoxicity against Chinese hamster CHO cells overexpressing IR assessed as cell proliferation rate at 0.4 to 10 uM by xCELLigence system; assay type: cell-based, Cricetulus griseus
[17] = test system: CHO; test: Inhibition of PTP1B in Chinese hamster CHO cells overexpressing IR assessed as insulin-stimulated IR phosphorylation treated for 3 hrs prior to insulin stimulation for 15 mins by western blot analysis; assay type: cell-based; settings: Cricetulus griseus
[18] = target: Receptor-type tyrosine-protein phosphatase F (Homo sapiens) (UniProt P10586); test: Inhibition of human GST-tagged PTP-LAR D1D2 domain assessed as DiFMUP hydrolysis by fluorometric kinetic-based assay
[19] = target: T3, Tyrosine-protein phosphatase non-receptor type 2; test: Inhibition of TC-PTP (unknown origin) expressed in Escherichia coli cells assessed as p-nitrophenyl phosphate hydrolysis by spectrophotometric analysis
[20] = target: T5, Tyrosine-protein phosphatase non-receptor type 1; test: Inhibition of PTP1B (unknown origin) expressed in Escherichia coli cells assessed as p-nitrophenyl phosphate hydrolysis by spectrophotometric analysis
[21] = test system: CHO; test: Cytotoxicity against Chinese hamster CHO cells overexpressing IR assessed as cell proliferation rate at 50 uM by xCELLigence system; assay type: cell-based, Cricetulus griseus
[22] = target: T8, Tyrosine-protein phosphatase non-receptor type 1 (Homo sapiens); test: Mixed inhibition of human GST-tagged PTP1B catalytic domain assessed as rate of DiFMUP hydrolysis by lineweaver-burk plot analysis

T4 sequence (Q13332 whole entry, the tested form may be a part): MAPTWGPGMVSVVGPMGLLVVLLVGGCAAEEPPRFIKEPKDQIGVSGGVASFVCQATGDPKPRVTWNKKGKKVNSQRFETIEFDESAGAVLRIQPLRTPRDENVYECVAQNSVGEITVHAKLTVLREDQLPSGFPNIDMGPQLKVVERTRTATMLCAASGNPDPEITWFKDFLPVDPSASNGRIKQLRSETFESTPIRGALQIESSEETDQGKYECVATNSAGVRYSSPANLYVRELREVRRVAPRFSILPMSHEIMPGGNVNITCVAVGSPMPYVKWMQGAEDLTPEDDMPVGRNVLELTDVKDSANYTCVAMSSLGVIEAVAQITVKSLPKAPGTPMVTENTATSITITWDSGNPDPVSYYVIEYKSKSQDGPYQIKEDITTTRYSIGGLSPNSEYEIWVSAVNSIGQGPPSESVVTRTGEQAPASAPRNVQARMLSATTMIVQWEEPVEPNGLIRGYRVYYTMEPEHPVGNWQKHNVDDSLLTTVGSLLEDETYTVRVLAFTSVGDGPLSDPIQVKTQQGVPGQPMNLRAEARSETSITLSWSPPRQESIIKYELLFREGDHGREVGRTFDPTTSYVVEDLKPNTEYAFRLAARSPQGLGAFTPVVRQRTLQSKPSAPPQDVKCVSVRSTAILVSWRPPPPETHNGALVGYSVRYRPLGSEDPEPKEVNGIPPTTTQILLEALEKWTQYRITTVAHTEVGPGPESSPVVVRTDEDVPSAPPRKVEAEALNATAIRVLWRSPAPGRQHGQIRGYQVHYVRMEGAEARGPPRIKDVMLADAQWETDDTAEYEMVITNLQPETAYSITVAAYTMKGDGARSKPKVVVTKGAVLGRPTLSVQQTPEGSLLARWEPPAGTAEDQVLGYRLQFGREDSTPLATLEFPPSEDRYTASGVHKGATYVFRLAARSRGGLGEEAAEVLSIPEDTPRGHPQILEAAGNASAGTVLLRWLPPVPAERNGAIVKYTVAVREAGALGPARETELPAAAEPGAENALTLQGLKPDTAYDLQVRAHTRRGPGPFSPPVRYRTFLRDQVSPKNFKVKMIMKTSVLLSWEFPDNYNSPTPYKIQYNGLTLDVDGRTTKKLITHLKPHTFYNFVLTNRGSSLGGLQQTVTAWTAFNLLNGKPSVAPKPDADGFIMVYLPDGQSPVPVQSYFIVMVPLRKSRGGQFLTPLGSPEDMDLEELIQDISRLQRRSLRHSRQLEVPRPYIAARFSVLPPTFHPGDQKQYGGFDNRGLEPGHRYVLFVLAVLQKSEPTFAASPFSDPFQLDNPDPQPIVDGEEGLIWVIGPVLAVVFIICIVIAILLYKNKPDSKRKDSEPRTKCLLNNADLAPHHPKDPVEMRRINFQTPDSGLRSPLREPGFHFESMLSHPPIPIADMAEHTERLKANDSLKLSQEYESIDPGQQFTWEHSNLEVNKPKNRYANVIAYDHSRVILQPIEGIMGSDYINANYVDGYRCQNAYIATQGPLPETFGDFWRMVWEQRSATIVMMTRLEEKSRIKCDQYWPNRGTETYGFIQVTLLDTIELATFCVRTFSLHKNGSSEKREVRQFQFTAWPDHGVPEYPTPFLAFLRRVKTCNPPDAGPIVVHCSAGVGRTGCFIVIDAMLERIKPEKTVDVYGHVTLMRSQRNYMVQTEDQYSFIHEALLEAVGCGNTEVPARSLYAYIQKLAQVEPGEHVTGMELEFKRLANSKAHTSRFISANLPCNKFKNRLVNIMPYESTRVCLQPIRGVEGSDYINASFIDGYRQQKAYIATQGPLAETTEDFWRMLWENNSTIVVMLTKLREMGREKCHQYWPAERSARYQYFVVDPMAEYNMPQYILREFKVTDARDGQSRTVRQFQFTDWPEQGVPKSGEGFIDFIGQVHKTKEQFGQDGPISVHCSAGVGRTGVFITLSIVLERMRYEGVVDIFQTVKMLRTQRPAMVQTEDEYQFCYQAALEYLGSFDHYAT
Sequence of Receptor-type tyrosine-protein phosphatase F (Homo sapiens) (P10586 whole entry, the tested form may be a part): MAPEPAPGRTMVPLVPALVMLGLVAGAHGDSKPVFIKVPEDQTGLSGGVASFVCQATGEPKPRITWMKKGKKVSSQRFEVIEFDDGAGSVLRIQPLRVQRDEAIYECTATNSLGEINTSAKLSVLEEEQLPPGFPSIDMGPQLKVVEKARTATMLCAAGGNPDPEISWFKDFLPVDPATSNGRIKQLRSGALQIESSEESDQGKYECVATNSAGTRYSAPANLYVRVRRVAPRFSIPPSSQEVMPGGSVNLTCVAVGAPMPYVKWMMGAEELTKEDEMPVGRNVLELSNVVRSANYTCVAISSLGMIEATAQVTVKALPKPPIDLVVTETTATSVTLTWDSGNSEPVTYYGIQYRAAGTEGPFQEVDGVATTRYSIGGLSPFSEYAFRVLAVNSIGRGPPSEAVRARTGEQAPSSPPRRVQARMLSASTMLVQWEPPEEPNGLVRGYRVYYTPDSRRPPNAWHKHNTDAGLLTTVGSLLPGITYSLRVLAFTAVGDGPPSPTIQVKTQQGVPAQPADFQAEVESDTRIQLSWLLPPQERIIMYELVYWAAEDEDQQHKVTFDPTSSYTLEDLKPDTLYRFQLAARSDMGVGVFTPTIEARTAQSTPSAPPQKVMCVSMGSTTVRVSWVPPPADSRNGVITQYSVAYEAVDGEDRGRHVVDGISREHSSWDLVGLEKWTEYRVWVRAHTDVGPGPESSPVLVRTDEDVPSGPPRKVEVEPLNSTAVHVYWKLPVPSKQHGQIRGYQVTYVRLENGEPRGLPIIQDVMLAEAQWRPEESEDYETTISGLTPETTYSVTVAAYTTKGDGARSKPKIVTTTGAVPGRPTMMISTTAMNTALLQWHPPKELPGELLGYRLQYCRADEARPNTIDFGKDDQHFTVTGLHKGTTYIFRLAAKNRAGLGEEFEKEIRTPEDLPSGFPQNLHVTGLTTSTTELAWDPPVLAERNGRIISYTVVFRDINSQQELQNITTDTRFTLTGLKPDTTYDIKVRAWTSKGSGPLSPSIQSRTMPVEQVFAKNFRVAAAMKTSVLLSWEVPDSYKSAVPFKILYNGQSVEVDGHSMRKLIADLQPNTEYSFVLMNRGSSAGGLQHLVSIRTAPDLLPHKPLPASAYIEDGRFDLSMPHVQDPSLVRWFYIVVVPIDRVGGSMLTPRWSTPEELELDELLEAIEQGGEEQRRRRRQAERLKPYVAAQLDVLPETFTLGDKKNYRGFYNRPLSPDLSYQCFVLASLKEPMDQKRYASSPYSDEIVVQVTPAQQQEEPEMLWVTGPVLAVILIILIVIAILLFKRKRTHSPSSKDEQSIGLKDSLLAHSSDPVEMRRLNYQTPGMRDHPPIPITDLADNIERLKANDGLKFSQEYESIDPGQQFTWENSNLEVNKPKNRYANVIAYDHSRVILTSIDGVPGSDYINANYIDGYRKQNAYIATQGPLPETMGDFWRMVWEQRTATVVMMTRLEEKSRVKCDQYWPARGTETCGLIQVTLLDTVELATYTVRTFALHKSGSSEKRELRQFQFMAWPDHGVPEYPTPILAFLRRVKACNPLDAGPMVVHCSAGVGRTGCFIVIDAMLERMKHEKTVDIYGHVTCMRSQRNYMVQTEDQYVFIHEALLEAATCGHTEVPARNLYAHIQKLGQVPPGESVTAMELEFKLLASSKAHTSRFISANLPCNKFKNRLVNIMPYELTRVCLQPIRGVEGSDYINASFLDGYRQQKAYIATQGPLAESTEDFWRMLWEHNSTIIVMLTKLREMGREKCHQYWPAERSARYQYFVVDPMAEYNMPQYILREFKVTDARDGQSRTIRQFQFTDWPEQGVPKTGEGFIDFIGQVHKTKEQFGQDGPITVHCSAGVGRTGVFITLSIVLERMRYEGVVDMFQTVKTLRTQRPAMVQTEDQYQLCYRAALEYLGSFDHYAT

SMILES | IC50 [1] | IC50 [2] | IC50 [3] | IC50 [4] | IC50 [5] | IC50 [6] | inhibition [7] | inhibition [8] | inhibition [9] | inhibition [10] | inhibition [11] | inhibition [12] | inhibition [13] | inhibition [18] | Activity [16] | inhibition [17] | further results
COC(=O)c1cccc(-c2ccc(-c3ccc(CN(C(=O)CN(C)S(=O)(=O)c4ccc(C)cc4)c4ccc(C(=O)O)c(O)c4)cc3)cc2)c1 | > 10 µM | > 10 µM | > 50 µM | 5.6 µM | 6.3 µM | 4.8 µM | inactive | inactive | inactive | inactive | > 80% | > 80% | > 80% | – | – | – | –
Cc1ccc(S(=O)(=O)N(C)CC(=O)N(Cc2ccc(-c3ccc(-c4cccc(C(N)=O)c4)cc3)cc2)c2ccc(C(=O)O)c(O)c2)cc1 | > 10 µM | > 10 µM | > 50 µM | 4.4 µM | 4.6 µM | 4.6 µM | inactive | inactive | inactive | inactive | > 80% | > 80% | > 80% | – | – | – | –
O=C(Cn1cc(-c2c(-c3ccccc3)oc3cc(O)c(C(=O)O)cc23)nn1)Nc1ccc(N2CCOCC2)cc1 | – | – | – | – | – | – | – | – | – | – | – | – | – | – | – | – | IC50 [19]: 22 µM; IC50 [20]: 19 µM
CN(CC(=O)N(Cc1ccc(C2CCCCC2)cc1)c1ccc(C(=O)O)c(O)c1)S(=O)(=O)c1cccc2ccccc12 | > 10 µM | > 10 µM | > 50 µM | 3.9 µM | 5.2 µM | 5.2 µM | inactive | inactive | inactive | inactive | > 80% | > 80% | > 80% | inactive | Non-toxic | Dose-dependent effect | Ki [14]: 2.1 µM; Activity [21]: Toxic

More lines, main results first:

IC50 [1] | IC50 [2] | IC50 [3] | IC50 [4] | IC50 [5] | IC50 [6] | inhibition [7] | inhibition [8] | inhibition [9] | inhibition [10] | inhibition [11] | inhibition [12] | inhibition [13] | inhibition [18] | SMILES | Activity [16] | inhibition [17] | further results
> 10 µM | > 10 µM | > 50 µM | 5.1 µM | 3.6 µM | 4.9 µM | inactive | inactive | inactive | inactive | > 80% | > 80% | > 80% | inactive | CN(C)c1cccc2c(S(=O)(=O)N(C)CC(=O)N(Cc3ccc(C4CCCCC4)cc3)c3ccc(C(=O)O)c(O)c3)cccc12 | Non-toxic | Dose-dependent effect | Ki [14]: 4 µM; Activity [15]: Toxic
> 10 µM | > 10 µM | > 50 µM | 5.1 µM | 6.1 µM | 5 µM | inactive | inactive | inactive | inactive | > 80% | > 80% | > 80% | – | Cc1ccc(S(=O)(=O)N(C)CC(=O)N(Cc2ccc(-c3ccc(-c4cccc(C#N)c4)cc3)cc2)c2ccc(C(=O)O)c(O)c2)cc1 | – | – | –
> 10 µM | > 10 µM | > 50 µM | 4.8 µM | 4.3 µM | 6.2 µM | inactive | inactive | inactive | inactive | > 80% | > 80% | > 80% | inactive | CN(CC(=O)N(Cc1ccc(C2CCCCC2)cc1)c1ccc(C(=O)O)c(O)c1)S(=O)(=O)c1cccc2cccnc12 | Non-toxic | Dose-dependent effect | Activity [15]: Toxic; inhibition [22]: Active
